Source: PubChem BioAssay (NCI)
Where “and” joins values, the source holds several entries; their conditions need not be identical. Equal values may be shown once.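 Grown in 96-well plates, cells were treated for 48 hours with each compound at five concentrations. Insufficient inhibition: endpoint recorded as highest concentration tested. GI50: concentration for 50% inhibition of growth. TGI: total growth inhibition.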

Key:
Assay in all cases: NCI-60 cell line screen, 48 h
HS 578T breast = test system: HS 578T breast
UO-31 renal = test system: UO-31 renal
SF-539 CNS = test system: SF-539 CNS
OVCAR-5 ovarian = test system: OVCAR-5 ovarian
SNB-75 CNS = test system: SNB-75 CNS
IGROV1 ovarian = test system: IGROV1 ovarian
M14 melanoma = test system: M14 melanoma
SR leukemia = test system: SR leukemia
SK-MEL-28 melanoma = test system: SK-MEL-28 melanoma
COLO 205 colon = test system: COLO 205 colon

SMILES	GI50 (HS 578T breast) [nM]	TGI (HS 578T breast) [nM]	GI50 (UO-31 renal) [nM]	TGI (UO-31 renal)	GI50 (SF-539 CNS) [nM]	TGI (SF-539 CNS) [nM]	GI50 (OVCAR-5 ovarian) [nM]	TGI (OVCAR-5 ovarian)	GI50 (SNB-75 CNS) [nM]	TGI (SNB-75 CNS) [nM]	GI50 (IGROV1 ovarian) [nM]	TGI (IGROV1 ovarian)	GI50 (M14 melanoma) [nM]	TGI (M14 melanoma) [nM]	GI50 (SR leukemia) [nM]	TGI (SR leukemia) [nM]	GI50 (SK-MEL-28 melanoma) [nM]	TGI (SK-MEL-28 melanoma) [nM]	GI50 (COLO 205 colon) [nM]	TGI (COLO 205 colon) [nM]
O=C1/C(=C/c2ccc(F)cc2)CN(C(=O)C(Cl)Cl)C/C1=C\c1ccc(F)cc1	325	1370	163	327 nM	269	791	323	1100 nM	1450	2930	188	410 nM	249	758	38.6	> 100000	257	666	353	1420
CC(=O)Nc1ccc(OC(C)=O)cc1	< 16.6	61500	252	26000 nM	< 10	766	< 10	> 100000 nM	< 10	28600	< 12.2	> 48500 nM	< 10	3320	< 10	1500	< 10	48000	< 10	10
CCOC(=O)c1c2c(n3ccc(NC(=O)CCN4CCCCC4)cc13)C(=O)c1ncccc1C2=O	351	6570	31.5	1460 nM	292	2000	1380	3200 nM	506	5980	348	2540 nM	170	1760	< 10	1200	668	2380	1180	2750
CC[C@H]1CCC/C=C/[C@@H]2C[C@H](O)C[C@H]2[C@H](O)/C=C/C(=O)O1	–	> 100000	26.7	> 37200 nM	60	> 100000	46.4	> 100000 nM	< 11.9	> 100000	152	> 100000 nM	37.6	> 100000	29.2	115	21.9	134	21.3	39.5
CN[C@@H](Cc1cccc2ccccc12)C(=O)N[C@@H](CC(C)C)B(O)O	–	57.7	17.9	59 nM and < 13.1 nM	4.73	16.7	18.7	51.8 nM and 20.4 nM	22.7	61.7	18.7	55.4 nM and 68.1 nM	–	145	16.3	281	11.9	27.1	42.7	170
O=S(=O)(O)n1ccnc1 (tested in a mixture with another compound)	–	> 100000	–	> 100000 nM	–	> 100000	–	> 100000 nM	–	> 100000	–	> 100000 nM	–	> 100000	–	> 100000	–	> 100000	–	> 100000
CCN1C(=O)N(CC)C2C1NN=c1s/c(=C\c3ccc(C(F)(F)F)cc3)c(=O)n12 (stereo unspecified)	349	> 42500	839	> 42900 nM	247	785	619	> 43800 nM	180	2740	576	33100 nM	311	> 36100	204	5770	2400	38700	256	888
CCCCc1n(Cc2ccc3ccccc3n2)cc[n+]1Cc1ccc2ccccc2n1	2760	16500	11700	24500 nM	1800	12600	2660	13700 nM	889	6010	1170	10900 nM	1710	10200	537	4870	1050	12200	535	2280
O=C(c1ccc2ccccc2c1)c1c(C(F)(F)F)n([O-])c2cc(C(F)(F)F)ccc2[n+]1=O	–	> 22200	1360	2700 nM	1710	3230	2030	4790 nM	1730	3130	1710	3360 nM	1650	3100	860	2640	1740	3380	1920	4050
